According to patent EP0183129A1, “Quinolonecarboxylic acid derivatives” (KYORIN PHARMACEUTICAL CO., LTD., priority 1984, dated 1986):
≈ marks a conversion by molar mass, not a printed value. Like-named read-outs stand apart in the source and are kept apart here.

Columns and labels:
[1] = test system: Bacillus subtilis PCI 219; experiment: In vitro antibacterial activity, MIC (standard strain); format: cell-based; conditions: Bacillus subtilis, PCI219
[2] = test system: Staphylococcus aureus 209 P; experiment: as above; format: cell-based; conditions: Staphylococcus aureus, 209P
[3] = test system: S. aureus Smith; experiment: as above; format: cell-based, Staphylococcus aureus; conditions: Staphylococcus aureus, MIC column of Table 3-1, beside ED50 against S. aureus Smith
[4] = test system: S. aureus IID 670 (Terajima); experiment: as above; format: cell-based, Staphylococcus aureus; conditions: Staphylococcus aureus, IID670
[5] = test system: S. epidermidis IID 866; experiment: as above; format: cell-based; conditions: Staphylococcus epidermidis, IID866
[6] = test system: Escherichia coli NIHJ JC-2; experiment: as above; format: cell-based; conditions: Escherichia coli, NIHJJC2
[7] = test system: E. coli ATCC 10536; experiment: as above; format: cell-based; conditions: Escherichia coli, ATCC10536
[8] = test system: E. coli ML 4707; experiment: as above; format: cell-based; conditions: Escherichia coli, ML4707
[9] = test system: Proteus vulgaris IFO 3167; experiment: as above; format: cell-based; conditions: Proteus vulgaris, IFO3167
[10] = test system: P. mirabilis IID 994; experiment: as above; format: cell-based; conditions: Proteus mirabilis, IID994
[11] = test system: Morganella morganii IID 602; experiment: as above; format: cell-based; conditions: IID602; Morganella morganii IID 602; 10^6 cells/ml; standard strain; read-out: MIC
[12] = test system: Citrobacter freundii IID 976; experiment: as above; format: cell-based; conditions: Citrobacter freundii, IID976
[13] = test system: Klebsiella pneumoniae KY(GN)6445; experiment: as above; format: cell-based; conditions: Klebsiella pneumoniae
[14] = test system: K. pneumoniae 1-220S; experiment: as above; format: cell-based; conditions: Klebsiella pneumoniae, 1220S
[15] = test system: Salmonella entritidis IID 604; experiment: as above; format: cell-based; conditions: Salmonella, IID604
[16] = test system: Shigella sonnei IID 969; experiment: as above; format: cell-based; conditions: IID969, 10^6 cells/ml
Procedure: Experiment-1 In vitro antibacterial activity
The in vitro antibacterial activity against gram-positive and gram-negative bacteria has been investivated.
The minimum inhibitory concentration (MIC) was determined in accordance with the method recommended by Japan Society of Chemotherapy.

[17] = test system: Yersinia enterocolitica IID 981; experiment: as above; format: cell-based; conditions: Yersinia enterocolitica, IID981
[18] = test system: Serratia marcescens IID 618; experiment: as above; format: cell-based; conditions: Serratia marcescens, IID618
[19] = test system: Fusobacterium varium KYA 8501; experiment: as above; format: cell-based; conditions: Fusobacterium varium, KYA8501
[20] = test system: C. difficile I-E; experiment: as above; format: cell-based; conditions: Clostridioides difficile
[21] = test system: E. coli ML4707; experiment: In vivo antibacterial activity against systemic infection in mice; set-up: species or system mice (ICR-S); conditions: Escherichia coli, ML4707, po, read-out: ED50 E. coli ML4707
Procedure: (§1) Experiment-2 In vivo antibacterial activity against systemic infection in mice (ICR-S)
(§2) The infections were produced by intraperitoneal injection of a suspension of the bacterial culture corresponding to the germ studied. The products were administered orally at an hour after the infection.

[22] = test system: S. aureus Smith; experiment: as above; set-up: species or system mice (ICR-S); conditions: Staphylococcus aureus, po
Procedure: as §1, §2

[23] = test system: S. pneumoniae S-4288; experiment: as above; set-up: species or system mice (ICR-S); conditions: Streptococcus pneumoniae, S4288, po, read-out: ED50 S. pneumoniae S-4288
Procedure: as §1, §2

[24] = test system: M. pneumoniae Mac.; experiment: In vitro antibacterial activity against Mycoplasma, MIC; format: cell-based; conditions: Mycoplasmoides pneumoniae, 120 h
Source text: Experiment-3 In vitro antibacterial activity against Mycoplasma

O=C(O)c1cn(C2CC2)c2cc(N3CCNCC3)c(F)cc2c1=O [CFLX, Ciprofloxacin, reference compound] gave an MIC [1] of 0.05 µg/mL (≈ 0.151 µM), an MIC [2] of 0.2 µg/mL (≈ 0.604 µM) and an MIC [3] of 0.2 µg/mL (≈ 0.604 µM). For the same molecule, the MIC [4] was 0.2 µg/mL (≈ 0.604 µM), the MIC [5] was 0.2 µg/mL (≈ 0.604 µM) and the MIC [6] was 0.0125 µg/mL (≈ 0.0377 µM). For the same molecule, the MIC [7] was 0.025 µg/mL (≈ 0.0754 µM), the MIC [8] was 0.0125 µg/mL (≈ 0.0377 µM) and the MIC [9] was 0.0125 µg/mL (≈ 0.0377 µM). It also gave an MIC [10] of 0.025 µg/mL (≈ 0.0754 µM), an MIC [11] of 0.05 µg/mL (≈ 0.151 µM) and an MIC [12] of 0.025 µg/mL (≈ 0.0754 µM). It also gave an MIC [13] of 0.025 µg/mL (≈ 0.0754 µM), an MIC [14] of 0.05 µg/mL (≈ 0.151 µM) and an MIC [15] of 0.05 µg/mL (≈ 0.151 µM). For the same molecule, the MIC [16] was 0.0125 µg/mL (≈ 0.0377 µM), the MIC [17] was 0.05 µg/mL (≈ 0.151 µM) and the MIC [18] was 0.05 µg/mL (≈ 0.151 µM). The MIC [19] was 12.5 µg/mL (≈ 37.7 µM), the MIC [20] was 12.5 µg/mL (≈ 37.7 µM) and the ED50 [21] was 1.8 mg/kg. The ED50 ([22]; read-out: ED50 S. aureus Smith, mice (ICR-S), an hour after intraperitoneal infection, challenge dose 6.0 x 10^5 cfu/mouse) was greater than 25 mg/kg, the ED50 ([22]; read-out: ED50 against S. aureus Smith, mice (ICR-S), an hour after intraperitoneal infection, challenge dose 5.5 x 10^5 cfu/mouse, n=5) was 25.5 mg/kg and the ED50 ([22]; read-out: ED50 against S. aureus Smith, mice (ICR-S), an hour after intraperitoneal infection, challenge dose 7 x 10^5 cfu/mouse, n=5) was 12.3 mg/kg. It also gave an ED50 [23] greater than 100 mg/kg.

In the case of CN(C)[C@@H]1C(O)=C(C(N)=O)C(=O)[C@@]2(O)C(O)=C3C(=O)c4c(O)cccc4[C@@](C)(O)[C@H]3C[C@@H]12 [TC, Tetracycline, reference compound], the MIC [24] is reported as 0.78 µg/mL (≈ 1.76 µM).
